# Earlier results, collected in patent US20130317107A1, “Platelet-Based Methods to Detect and Monitor Treatment Benefits in Mucosal and Nervous Systems Diseases” (priority 2012, published 2013).
# Experiments:
# [1] = system: collagen-stimulated platelets
# [2] = system: dogs; conditions: administered intravenously in dogs
# [3] = system: human bronchial epithelial cells
# [4] = relative to cysteine
# [5] = relative to the stable cysteine disulfide
# [6] = system: interluekin-1 beta (IL-1β)-induced eotaxin and monocyte chemotactic protein-1 (MCP-1) expression; conditions: by inhibiting activation of p38 MAP kinase
# [7] = system: p38 MAP kinase; conditions: human bronchial epithelial cells
SMILES,CD40L release [1],protection against pulmonary oxygen toxicity and ischemic and reperfusion damage [2],DEP-induced IL-8 and RANTES production [3],stability compared with cysteine [4],solubility compared with cystine [5],IL-1β-induced eotaxin and MCP-1 expression and production [6],DEP-induced p38 MAP kinase activity [7]
CC(=O)Oc1ccccc1C(=O)O [Aspirin],only partially inhibit,,,,,,
CC(=O)N[C@@H](CS)C(=O)O [N-acetylcysteine],,protect,inhibited,about 10 times,much more soluble,inhibit,inhibit
